In the CheMixHub viscosity set:
± gives the uncertainty stated by the source.

Test: xn = mol fraction of the nth substance listed

CC#N + CC(C)O
Settings	viscosity [mPa·s]
293.15 K, 101.32 kPa, x1 = 0.0526	1.921 ± 0.015
293.15 K, 101.32 kPa, x1 = 0.0771	1.736 ± 0.014
293.15 K, 101.32 kPa, x1 = 0.1018	1.572 ± 0.013
293.15 K, 101.32 kPa, x1 = 0.2227	1.15 ± 0.009
293.15 K, 101.32 kPa, x1 = 0.3314	0.8622 ± 0.0073
293.15 K, 101.32 kPa, x1 = 0.3989	0.7354 ± 0.0063
293.15 K, 101.32 kPa, x1 = 0.55	0.5657 ± 0.0051
293.15 K, 101.32 kPa, x1 = 0.625	0.502 ± 0.0046
293.15 K, 101.32 kPa, x1 = 0.6893	0.4639 ± 0.0043
293.15 K, 101.32 kPa, x1 = 0.7624	0.4194 ± 0.004
293.15 K, 101.32 kPa, x1 = 0.864	0.3823 ± 0.0037
298.15 K, 101 kPa, x1 = 0.1056	1.372 ± 0.019
298.15 K, 101 kPa, x1 = 0.1688	1.145 ± 0.015
298.15 K, 101 kPa, x1 = 0.2531	0.923 ± 0.012
298.15 K, 101 kPa, x1 = 0.4135	0.653 ± 0.008
298.15 K, 101 kPa, x1 = 0.5014	0.556 ± 0.007
298.15 K, 101 kPa, x1 = 0.6077	0.473 ± 0.006
298.15 K, 101 kPa, x1 = 0.7093	0.424 ± 0.005
298.15 K, 101 kPa, x1 = 0.8276	0.373 ± 0.004
298.15 K, 101 kPa, x1 = 0.9013	0.356 ± 0.004
298.15 K, 101.3 kPa, x1 = 0.1399	1.254 ± 0.03
298.15 K, 101.3 kPa, x1 = 0.2679	0.846 ± 0.021
298.15 K, 101.3 kPa, x1 = 0.3855	0.66 ± 0.017
298.15 K, 101.3 kPa, x1 = 0.4939	0.541 ± 0.015
298.15 K, 101.3 kPa, x1 = 0.5942	0.482 ± 0.014
298.15 K, 101.3 kPa, x1 = 0.6871	0.419 ± 0.012
298.15 K, 101.3 kPa, x1 = 0.7736	0.372 ± 0.011
298.15 K, 101.3 kPa, x1 = 0.8541	0.343 ± 0.011
298.15 K, 101.3 kPa, x1 = 0.9295	0.342 ± 0.011
303.15 K, 101 kPa, x1 = 0.1056	1.088 ± 0.014
303.15 K, 101 kPa, x1 = 0.1688	0.918 ± 0.012
303.15 K, 101 kPa, x1 = 0.2531	0.762 ± 0.009
303.15 K, 101 kPa, x1 = 0.4135	0.551 ± 0.007
303.15 K, 101 kPa, x1 = 0.5014	0.482 ± 0.006
303.15 K, 101 kPa, x1 = 0.6077	0.417 ± 0.005
303.15 K, 101 kPa, x1 = 0.7093	0.382 ± 0.004
303.15 K, 101 kPa, x1 = 0.8276	0.341 ± 0.004
303.15 K, 101 kPa, x1 = 0.9013	0.327 ± 0.004
303.15 K, 101.3 kPa, x1 = 0.1399	1.114 ± 0.027
303.15 K, 101.3 kPa, x1 = 0.2679	0.758 ± 0.02
303.15 K, 101.3 kPa, x1 = 0.3855	0.599 ± 0.016
303.15 K, 101.3 kPa, x1 = 0.4939	0.502 ± 0.014
303.15 K, 101.3 kPa, x1 = 0.5942	0.45 ± 0.013
303.15 K, 101.3 kPa, x1 = 0.6871	0.394 ± 0.012
303.15 K, 101.3 kPa, x1 = 0.7736	0.356 ± 0.011
303.15 K, 101.3 kPa, x1 = 0.8541	0.327 ± 0.01
303.15 K, 101.3 kPa, x1 = 0.9295	0.326 ± 0.01
303.15 K, 101.32 kPa, x1 = 0.0526	1.464 ± 0.012
303.15 K, 101.32 kPa, x1 = 0.0771	1.361 ± 0.011
303.15 K, 101.32 kPa, x1 = 0.1018	1.239 ± 0.01
303.15 K, 101.32 kPa, x1 = 0.2227	0.9168 ± 0.0077
303.15 K, 101.32 kPa, x1 = 0.3314	0.7097 ± 0.0062
303.15 K, 101.32 kPa, x1 = 0.3989	0.6154 ± 0.0054
303.15 K, 101.32 kPa, x1 = 0.55	0.4831 ± 0.0045
303.15 K, 101.32 kPa, x1 = 0.625	0.4366 ± 0.0041
303.15 K, 101.32 kPa, x1 = 0.6893	0.407 ± 0.0039
303.15 K, 101.32 kPa, x1 = 0.7624	0.378 ± 0.0037
303.15 K, 101.32 kPa, x1 = 0.864	0.344 ± 0.0034
308.15 K, 101 kPa, x1 = 0.1056	0.871 ± 0.011
308.15 K, 101 kPa, x1 = 0.1688	0.739 ± 0.01
308.15 K, 101 kPa, x1 = 0.2531	0.635 ± 0.008
308.15 K, 101 kPa, x1 = 0.4135	0.475 ± 0.006
308.15 K, 101 kPa, x1 = 0.5014	0.42 ± 0.005
308.15 K, 101 kPa, x1 = 0.6077	0.372 ± 0.004
308.15 K, 101 kPa, x1 = 0.7093	0.345 ± 0.004
308.15 K, 101 kPa, x1 = 0.8276	0.312 ± 0.004
308.15 K, 101 kPa, x1 = 0.9013	0.302 ± 0.004
308.15 K, 101.3 kPa, x1 = 0.1399	0.995 ± 0.025
308.15 K, 101.3 kPa, x1 = 0.2679	0.687 ± 0.018
308.15 K, 101.3 kPa, x1 = 0.3855	0.546 ± 0.015
308.15 K, 101.3 kPa, x1 = 0.4939	0.465 ± 0.013
308.15 K, 101.3 kPa, x1 = 0.5942	0.417 ± 0.012
308.15 K, 101.3 kPa, x1 = 0.6871	0.37 ± 0.011
308.15 K, 101.3 kPa, x1 = 0.7736	0.331 ± 0.01
308.15 K, 101.3 kPa, x1 = 0.8541	0.311 ± 0.01
308.15 K, 101.3 kPa, x1 = 0.9295	0.309 ± 0.01
313.15 K, 101.3 kPa, x1 = 0.1399	0.889 ± 0.022
313.15 K, 101.3 kPa, x1 = 0.2679	0.623 ± 0.017
313.15 K, 101.32 kPa, x1 = 0.0526	1.125 ± 0.009
313.15 K, 101.32 kPa, x1 = 0.0771	1.047 ± 0.009
313.15 K, 101.32 kPa, x1 = 0.1018	0.991 ± 0.0083
313.15 K, 101.32 kPa, x1 = 0.2227	0.7301 ± 0.0063
313.15 K, 101.32 kPa, x1 = 0.3314	0.5949 ± 0.0053
313.15 K, 101.32 kPa, x1 = 0.3989	0.5253 ± 0.0048
313.15 K, 101.32 kPa, x1 = 0.55	0.4201 ± 0.004
313.15 K, 101.32 kPa, x1 = 0.625	0.3817 ± 0.0037
313.15 K, 101.32 kPa, x1 = 0.6893	0.361 ± 0.0036
313.15 K, 101.32 kPa, x1 = 0.7624	0.3321 ± 0.0033
313.15 K, 101.32 kPa, x1 = 0.864	0.3081 ± 0.0032
323.15 K, 101 kPa, x2 = 0.0989	0.289 ± 0.01
323.15 K, 101 kPa, x2 = 0.1994	0.312 ± 0.01
323.15 K, 101 kPa, x2 = 0.2943	0.34 ± 0.01
323.15 K, 101 kPa, x2 = 0.3965	0.378 ± 0.01
323.15 K, 101 kPa, x2 = 0.4864	0.427 ± 0.01
323.15 K, 101 kPa, x2 = 0.6077	0.499 ± 0.01
323.15 K, 101 kPa, x2 = 0.7049	0.58 ± 0.01
323.15 K, 101 kPa, x2 = 0.8007	0.685 ± 0.01
323.15 K, 101 kPa, x2 = 0.8971	0.815 ± 0.011
323.15 K, 101.32 kPa, x1 = 0.0526	0.9024 ± 0.0077
323.15 K, 101.32 kPa, x1 = 0.0771	0.8427 ± 0.0072
323.15 K, 101.32 kPa, x1 = 0.1018	0.7839 ± 0.0068
323.15 K, 101.32 kPa, x1 = 0.2227	0.6091 ± 0.0054
323.15 K, 101.32 kPa, x1 = 0.3314	0.5031 ± 0.0046
323.15 K, 101.32 kPa, x1 = 0.3989	0.4466 ± 0.0042
323.15 K, 101.32 kPa, x1 = 0.55	0.3731 ± 0.0037
323.15 K, 101.32 kPa, x1 = 0.625	0.3434 ± 0.0034
323.15 K, 101.32 kPa, x1 = 0.6893	0.329 ± 0.0033
323.15 K, 101.32 kPa, x1 = 0.7624	0.3054 ± 0.0032
323.15 K, 101.32 kPa, x1 = 0.864	0.2835 ± 0.003
